# Measured values: patent US20080187937A1, “Method For Measuring Dynamics Of Self-Assembling Systems Of Biological Molecules In Vivo And Uses For Discovering Or Evaluating Therapeutic Agents” (priority 2004, published 2008)
# “Also recorded” adds a separate entry of the source.
# What was measured:
# [1] = tested on: SW1573 human lung cancer cells; assay: 2H2O stable isotope incorporation into tubulin dimers and microtubule polymers in cultured cells; assay type: cell-based
# Method: To determine whether biosynthetic labeling with ^2H2O can reveal MTPA effects on microtubule dynamics in actively proliferating cells, SW1573 human lung cancer cells were cultured and labeled during exponential growth with culture media containing 4% ^2H2O for 2, 6, 12, 24 and 36 hr, respectively. Tubulin dimer and polymer fractions were isolated from post-nuclear supernatants, and tubulin was purified from each fraction to ≧90% purity as determine by SDS-PAGE. After acid hydrolysis, amino acids were derivatized for GC/MS analysis with negative chemical ionization, and ^2H-label incorporation into the alanine derivative was quantified as the increase over natural abundance of the (M+1) mass isotopomer (“^2H—enrichment”; FIG. 3). […] The data support that in actively dividing cells, tubulin dimers and polymers are in a kinetic equilibrium on a time scale of hours. […] This indicates a substantial inhibition of ^2H—tubulin dimer flux into polymer, reflective of the ability of paclitaxel to stabilize microtubules and thus to prevent dynamic instability.
# [2] = tested on: SW1573 human lung cancer cells implanted into nude mice; assay: 2H label incorporation into tubulin dimers and polymers in implanted SW1573 tumors in vivo
# Method: (§1) The tumors were allowed to grow to approximately 1000 mm^3 […]; mice were then injected intraperitoneally with increasing doses of paclitaxel. ^2H2O (8%) in drinking water was administered for a 24 hr period, resulting in about 5% ^2H enrichment in body water (the balance being metabolic water). Animals were sacrificed 24 hours after drug treatment, and tumor tissue was removed for analysis of ^2H—label incorporation into tubulin dimers and polymers (FIG. 4).
# [3] = tested on: MCF-7 human breast cancer cells implanted into nude mice; assay: 2H label incorporation into tubulin dimers and polymers in implanted MCF-7 tumors in vivo
# Method: as §1
# Qualitatively similar effects of paclitaxel were also seen in implanted MCF-7 tumors, though the amount of ^2H—label incorporation was lower than in SW1573 tumors (FIG. 4B).
# [4] = tested on: SW1573 human lung cancer cells implanted into nude mice; assay: Microtubule dynamics compared to de novo DNA synthesis (cell proliferation) in SW1573 tumors; assay type: in vivo; settings: varying doses of paclitaxel; 2H2O for 24 hours (FIG. 5A)
# Source text: (§2) Microtubule dynamics were expressed as (^2H enrichment in polymer)/(^2H enrichment in dimer). Inhibition of de novo DNA synthesis was quantified as the reduction in ^2H label incorporation into tumor cell DNA. […]
# (§3) Various factors can interfere with the actions of paclitaxel in tumors, including alterations in tubulin isotype content, efflux pumps, and in vivo drug metabolism. Regardless of these factors, inhibition of microtubule dynamics, if related to the antiproliferative activity of MTPAs in vivo, should correlate with inhibition of cell proliferation. […] Thus, the inhibition of microtubule dynamics appeared to have a measurable impact on and relation to the in vivo antiproliferative action of MTPAs.
# [5] = tested on: MCF-7 human breast cancer cells implanted into nude mice; assay: Microtubule dynamics compared to de novo DNA synthesis (cell proliferation) in MCF-7 tumors; assay type: in vivo; settings: varying doses of paclitaxel; 2H2O for 24 hours (FIG. 5B)
# Source text: as §2, §3
# microtubules = settings: fold lower than maximum tolerated therapeutic dose
# [6] = tested on: sciatic nerve microtubules; assay: Densitometric analysis of free tubulin and microtubule abundance in sciatic nerve; settings: tumor-bearing mice (FIG. 6B)
# Method: (§4) In order to evaluate neurotoxic effects of paclitaxel, the sciatic nerve was isolated from tumor-bearing mice and ^2H label incorporation into free tubulin was compared with ^2H label incorporation into polymerized microtubuies (FIG. 6). […] To explore this effect further, net changes in the abundance of unpolymerized free tubulin and microtubules was assessed by densitometric analysis (FIG. 6B).
# [7] = tested on: sciatic nerve microtubules; assay: Sciatic nerve microtubule dynamics (2H label incorporation into free tubulin and polymerized microtubules); settings: higher doses of paclitaxel; tumor-bearing mice (FIG. 6A)
# Method: as §4
# [8] = at ≧5 mg/kg i.p., 2H2O for 24 hours (FIG. 4A)
# [9] = increasing doses i.p., 24 hr 2H2O (8%) in drinking water
# [10] = at ≧5 mg/kg i.p., 2H2O for 24 hours (FIG. 4B)
structure (smiles),measurement,setting,value
CC(=O)O[C@H]1C(=O)[C@@]2(C)[C@H]([C@H](OC(=O)c3ccccc3)[C@]3(O)C[C@H](OC(=O)[C@H](O)[C@@H](NC(=O)c4ccccc4)c4ccccc4)C(C)=C1C3(C)C)[C@]1(OC(C)=O)CO[C@@H]1C[C@@H]2O [paclitaxel],2H-enrichment in labeled polymers,"[1]; 0.4 µM paclitaxel, 4% 2H2O, 36 hours (FIG. 3B)",reduced ^2H-enrichment in labeled polymers
same,reduction of rate of 2H incorporation into polymers compared to rate of label incorporation into the dimer,"[1]; media containing 4% 2H2O, up to 36 hr",75%
same,de novo synthesis of tubulin dimer,[2]; [8],increased de novo synthesis of tubulin dimer
same,label incorporation into polymer,[2]; [8],inhibited label incorporation into polymer
same,fractional synthesis of tubulin dimers,[2]; [9],fractional synthesis of tubulin dimers increased
same,incorporation of 2H-tubulin into microtubules,[2]; [9],decreased incorporation of ^2H—tubulin into microtubules in a dose-dependent manner
same,paclitaxel-dependent reduction of 2H-label polymer,"[3]; 5 and 10 mg/kg doses, compared with SW1573 tumors","less pronounced, albeit statistically significant"
same,de novo synthesis of tubulin dimer,[3]; [10],increased de novo synthesis of tubulin dimer
same,label incorporation into polymer,[3]; [10],inhibited label incorporation into polymer
same,upregulation of tubulin fractional synthesis over baseline,"[3]; increasing doses i.p., 24 hr 2H2O",no significant paclitaxel-induced upregulation of tubulin fractional synthesis over baseline
same,relation between inhibition of microtubule dynamics and inhibition of de novo DNA synthesis (tumor cell proliferation),[4],strong relationship; also recorded: strong correlation between inhibition of microtubule dynamic instability and reduction in cell proliferation
same,relation between inhibition of microtubule dynamics and inhibition of de novo DNA synthesis (tumor cell proliferation),[5],strong relationship; also recorded: strong correlation between inhibition of microtubule dynamics and reduction in cell proliferation
same,"doses with significant effects on microtubule dynamics, relative to the maximum tolerated therapeutic dose",microtubules,up to 30 fold
same,"amount of free tubulin dimers (sciatic nerve, densitometry)",[6],slight decrease in free tubulin dimers
same,2H label incorporation into polymers (sciatic nerve),[7],increased the label incorporation into polymers
same,2H labeling of free tubulin (sciatic nerve),[7],slightly decreasing labeling of free tubulin
